According to the Deep4Chem optical property database:

Assay: solvent given as SMILES

Compound CN(C)c1ccc2nc(/C=C/c3cc4c5c(c3)CCCN5CCC4)c(=O)oc2c1 has an emission maximum (in C1CCCCC1) of 543 nm, an emission maximum (in C1COCCO1) of 611 nm and an emission maximum (in CC#N) of 709 nm. The emission maximum (in CC(C)=O) was 679 nm, the emission maximum (in CCCCCCC) was 540 nm and the emission maximum (in CCO) was 705 nm. It also gave an emission maximum (in CCOC(C)=O) of 628 nm, an emission maximum (in CN(C)C=O) of 704 nm and an emission maximum (in CS(C)=O) of 715 nm. For the same compound, the emission maximum (in Cc1ccccc1) was 596 nm, the emission maximum (in ClC(Cl)Cl) was 671 nm and the emission maximum (in ClCCl) was 678 nm.
Compound C(=C\c1ncc2ccccc2n1)/c1ccc(N(c2ccccc2)c2ccccc2)cc1 has an emission maximum (in C1CCCCC1) of 449 nm, an emission maximum (in C1CCOC1) of 498 nm and an emission maximum (in CC#N) of 543 nm. It also gave an emission maximum (in CS(C)=O) of 547 nm and an emission maximum (in ClCCl) of 520 nm.
Cc1ccsc1-c1ccc(-c2ccc(-c3sccc3C)s2)s1 gave an emission maximum (in CCCCCCCCCCCCCC) of 473 nm.
CC(=O)n1cc(/C=C/c2ccc([N+](=O)[O-])cc2)c2ccccc21 gave an emission maximum (in CC#N) of 428 nm, an emission maximum (in CCCCCCC) of 408 nm and an emission maximum (in CO) of 424 nm. The emission maximum (in O) was 537 nm.
With CCN(CC)c1ccc2cc(-c3ccc(-c4ccc(-c5cc6ccc(N(CC)CC)cc6oc5=O)cc4)cc3)c(=O)oc2c1 the emission maximum (in ClCCl) was 484 nm.
F[B-]1(F)OC(c2ccc(N3CCCCC3)cc2)=Cc2cccc[n+]21 gave an emission maximum (in ClC(Cl)Cl) of 499 nm.
Compound N#Cc1ccc(-c2ccc(C3=CCC(c4ccccc4)CC3)s2)s1 (stereo not given) has an emission maximum (in C1CCOC1) of 442 nm, an emission maximum (in CC#N) of 448 nm and an emission maximum (in CCCCCC) of 427 nm. The emission maximum (in CCO) was 444 nm, the emission maximum (in OCCOCCO) was 452 nm and the emission maximum (in c1ccncc1) was 452 nm.
Work on CN(C)c1ccc(-n2c(-c3ccncc3)nc3nccnc32)cc1 yielded an emission maximum (in CC#N) of 405 nm.
In the case of CCCCCCN(CCCCCC)c1ccc(C#Cc2ccc(C#Cc3ccc(-c4ccc(C#Cc5ccc(C#Cc6ccc(N(CCCCCC)CCCCCC)cc6)cc5)cc4)cc3)cc2)cc1, the emission maximum (in Cc1ccccc1) is reported as 433 nm.
FC(F)(F)c1ccc(/C=C/c2ccc(-c3nnc(-c4ccc(-c5cc6ccccc6s5)cc4)o3)cc2)cc1 gave an emission maximum (in CC#N) of 388 nm, an emission maximum (in CC(C)=O) of 390 nm and an emission maximum (in CCCCCCCC) of 387 nm. It also gave an emission maximum (in CCCCCCCCCCO) of 395 nm, an emission maximum (in CCCCCCCCO) of 394 nm and an emission maximum (in CCCCCO) of 393 nm. For the same compound, the emission maximum (in CCCO) was 391 nm, the emission maximum (in CN(C)C=O) was 416 nm and the emission maximum (in CO) was 389 nm. The emission maximum (in CS(C)=O) was 397 nm.
Work on CCCCN1/C(=C/C=C/C2=[N+](C)c3ccccc3C2(C)C)Oc2ccccc21 yielded an emission maximum (in CS(C)=O) of 537 nm.
COc1ccc(C2CC(c3ccc(O)cc3)=NN2c2ccc(S(N)(=O)=O)cc2)cc1 (stereo not given) showed an emission maximum (in C1CCOC1) of 417 nm, an emission maximum (in C1COCCO1) of 418 nm and an emission maximum (in CC#N) of 418 nm. The emission maximum (in CC(C)O) was 423 nm, the emission maximum (in CCO) was 429 nm and the emission maximum (in CCOC(C)=O) was 416 nm. The emission maximum (in CN(C)C=O) was 422 nm, the emission maximum (in CO) was 432 nm and the emission maximum (in CS(C)=O) was 425 nm. The emission maximum (in O) was 448 nm.
With N#C/C(=C\c1ccc(C=C(c2ccccc2)c2ccccc2)cc1)c1ccccc1 the emission maximum (in C1CCOC1) was 468 nm.
Compound CC(=O)c1c2c(cc3cc(N(C)C)ccc13)CCC2 has an emission maximum (in C1CCCCC1) of 445 nm, an emission maximum (in C1CCOC1) of 505 nm and an emission maximum (in C1COCCO1) of 495 nm. The emission maximum (in CC#N) was 545 nm, the emission maximum (in CCO) was 605 nm and the emission maximum (in CS(C)=O) was 558 nm. The emission maximum (in Cc1ccccc1) was 481 nm, the emission maximum (in ClC(Cl)Cl) was 511 nm and the emission maximum (in ClCCl) was 509 nm.
Compound Clc1ccc(-c2c3nc(c(-c4ccc(Cl)cc4)c4ccc([nH]4)c(-c4ccc(Cl)cc4)c4nc(c(-c5ccc(Cl)cc5)c5ccc2[nH]5)C=C4N2CCOCC2)C=C3)cc1 has an emission maximum (in CS(C)=O) of 662 nm.
With Cn1nc(-c2ccc(C(F)(F)F)cc2)cc1-c1ccccc1 the emission maximum (in ClCCl) was 341 nm.
Compound Cc1ccc(C2=C(/C=C/C(=O)OC3CC[C@@]4(C)C(=CC[C@H]5[C@@H]6CC[C@H]([C@H](C)CCCC(C)C)[C@@]6(C)CC[C@@H]54)C3)C(c3ccc(C)cc3)=[N+]3C2=Nc2c(-c4ccc(C)cc4)c(Br)c(-c4ccc(C)cc4)n2[B-]3(F)F)cc1 (stereo not given in full) has an emission maximum (in ClC(Cl)Cl) of 704 nm.
Work on C[n+]1ccc(/C=C/c2cc[n+](C)cc2)cc1 yielded an emission maximum (in CC#N) of 372 nm.
Compound O=c1c2cc(F)c(O)cc2oc2cc(N3CCCCC3)c(F)cc12 has an emission maximum (in CCO) of 445 nm.
C#CCOc1ccc(/C=C/C2=[N+]3C(=C(c4ccc(N5CCCCC5)cc4)c4c(C)cc(C)n4[B-]3(F)F)C(C)=C2)cc1 gave an emission maximum (in CO) of 582 nm.
In the case of CCCCCCCCOC(=O)c1ccc(-c2cc3ccc4cc(-c5ccc(C(=O)OCCCCCCCC)cc5)cc5ccc(c2)c3c45)cc1, the emission maximum (in Cc1ccccc1) is reported as 421 nm.
With N#CC(C#N)=Cc1ccc2c(c1)c1ccccc1n2-c1cccc2ccccc12 the emission maximum (in ClCCl) was 473 nm.
Compound O=C1c2ccccc2-c2ccccc21 has an emission maximum (in C1CCCCC1) of 463 nm, an emission maximum (in CC#N) of 507 nm and an emission maximum (in CCO) of 553 nm. For the same compound, the emission maximum (in c1ccccc1) was 485 nm.
